Test results reported in patent US20080248008A1, “Inhibitors of Protein Kinase a Anchoring” (priority 2004, published 2008).
“Also recorded” adds a separate entry of the source.

Assays:
RI = target: T1, RI (Homo sapiens, UniProt P10644); test: Co-immunoprecipitation with RI in transfected HEK293 cells; type: cell-based; conditions: HEK293 cells transfected with GFP-fusion constructs
T1 construct: endogenous in cells; host or cells: HEK293 (transfected only with GFP-peptide constructs)
Experimental: HEK293 cells at […] were transfected with ten μg of plasmid DNA (GFP, GFP-MEME3 or GFP-Scrambled MEME3) by using the CaCl2 method. Cells were lysed after 30 hours in lysis buffer (20 mM Hepes, pH 7.5/150 mM NaCl/1 mM EDTA/1% Triton X-100) with protease inhibitors (Complete Mini, EDTA-free tablets, Roche).
Immunoblot analysis. Immunocomplexes and lipid raft fractions were analysed on a 10, 15% or 4-20% PAGE and blotted onto PVDF membranes. The filters were blocked in 5% non-fat dry milk in TBST for 30 minutes at RT, incubated 1 hour at RT (or overnight at 4° C.) with primary antibodies, washed four times 5 minutes in TBST with 0.1% Tween-20 and incubated with a horseradish-peroxidase-conjugated secondary antibody. Blots were developed by using Supersignal West Dura Extended Duration Substrate or Supersignal West Pico substrate (Pierce).
Antibodies. RI or RII were immunoprecipitated with polyclonal antibodies against human RI or human RII at a 3 μg/ml dilution (Santa Cruz Biotechnology). MEME3 or scrambled peptide was immunoprecipitated with 1.5 μl of anti-GFP antiserum (Invitrogen). […]
Immunocomplexes were analysed on 10% PAGE (B and C) or 15% PAGE (D) and subjected to Western blotting using anti-GFP, anti-RI or anti-RII as indicated and blotted onto PVDF membranes. […]

PKA-RIα = PKA-RIα (Homo sapiens, UniProt P10644); test: Immunofluorescence of PKA-RIα localisation in human T cells; type: cell-based; set-up: endogenous in cells; host or cells: human peripheral blood CD3+ T cells; conditions: 5 μM
Experimental: Immunofluorescence analysis of cells was performed as previously described (Collas, P. et al., 1996, J. Cell Biol. 135, 1715-1725). RI was detected by using an anti-RI monoclonal antibody (Transduction Laboratories) as a primary antibody at a […] and Alexa-488 as a secondary antibody (1:600, Goat anti Mouse IgGs, Molecular Probes). Immunofluorescence was performed on Y1 cells attached to collagen/fibronectin coated coverslips. Mitochondria were stained using MitoTracker Red CMXRos (Molecular Probes) in fresh medium with incubation at 37° C. for 30 min prior to cell fixation. All cells were washed in PBS, fixed with 3% paraformaldehyde and permeabilised using 0.1% Triton X-100. Proteins were blocked in 2% BSA/PBST prior to antibody labeling. Primary and secondary antibodies were used at a 1:200 dilution in BSA/PBST and incubated for 30 min. DNA was counterstained using TO-PRO 3 (Molecular Probes) at a concentration of 1 μM. […] Alternatively, fluorescently labeled cells were examined using a Leica TCS SP1 confocal fluorescence microscope (Leica, Heidelberg, Germany) equipped with an Ar (488 nm) and two He/Ne (543 and 633 nm) laser lines. […]
Isolated human peripheral blood T cells were treated with MEME3-Arg11 peptide at different concentrations, and the location of PKARIα determined by immunofluorescence.

Molecule	co-precipitation with RI (RI)	displacement of RI from T cell membranes / cell periphery (PKA-RIα)
CC[C@H](C)[C@H](NC(=O)[C@H](CCC(N)=O)NC(=O)[C@H](CC(=O)O)NC(=O)[C@H](C)NC(=O)[C@H](CC(C)C)NC(=O)[C@H](CCC(N)=O)NC(=O)[C@H](CC(N)=O)NC(=O)[C@H](C)NC(=O)[C@H](Cc1ccc(O)cc1)NC(=O)[C@H](CCC(N)=O)NC(=O)[C@H](CCC(=O)O)NC(=O)[C@@H](N)CC(C)C)C(=O)N[C@H](C(=O)N[C@@H](CCCCN)C(=O)N[C@@H](CCC(=O)O)C(=O)N[C@@H](C)C(=O)N[C@H](C(=O)N[C@@H](CCC(=O)O)C(=O)N[C@@H](CCCCNC(=O)c1ccc2c(c1)C(=O)OC21c2ccc(O)cc2Oc2cc(O)ccc21)C(N)=O)[C@@H](C)O)[C@@H](C)CC [MEME3]	Co-precipitation of MEME3 with RI	–
IEKELAQQYQNADAITLE [SM3, scrambled MEME3 negative control peptide, reference compound]	did not co-precipitate with RI	–
LEQYANQLADQIIKEATERRRRRRRRRrr [MEME3-Arg11]	–	Displacement of RI from T cell membranes was observed; also recorded: displaced and delocalized
